The values that follow come from publication PMC9416745, “The Effect of 1,2,4-Triazole-3-thiol Derivatives Bearing Hydrazone Moiety on Cancer Cell Migration and Growth of Melanoma, Breast, and Pancreatic Cancer Spheroids” (Pharmaceuticals, 2022).

Series [1] deals with human malignant melanoma cell line IGR39. In words: MTT cell viability assay, IGR39. It is filed as cell-based. Here is the method:
(§1) The effect of synthesized compounds on cell viability was studied using 3-(4,5-dimethylthiazol-2-yl)-2,5-diphenyltetrazolium bromide (MTT; Sigma-Aldrich Co., St Louis, MO, USA) assay, as described elsewhere. Briefly, IGR39, MDA-MB-231, Panc-1, and HF cells were seeded in 96-well plates (Corning) in triplicate at a volume of 100 μL (IGR39, MDA-MB-231 and Panc-1: 4 × 10^3 cells/well; HF: 5 × 10^3 cells/well). After 24 h, cells were treated with 50 μM of tested compounds. After 72 h, the MTT reagent was added and cells were incubated for 4 h. Then the medium was aspirated, and the formed formazan crystals were dissolved in 100 μL DMSO (Sigma-Aldrich Co., St. Louis, MO, USA). The absorbance was measured at 570 and 630 nm using a multi-detection microplate reader. The compound effect on cell viability was calculated using the formula:(1) Relative cell viability (%)=A−A0/ANC−A0 where
(§2) • A—mean of absorbance of the tested compound, • A0—mean of absorbance of blank (no cells, positive control), and • ANC—mean of absorbance of negative control (only cells, no treatment).
(§3) The compound serial dilutions from 50 µM to 1.56 µM were made in a medium and added to the cells in triplicates. The EC50 value representing the concentration of a compound causing 50% reduction of cancer cell metabolic activity was calculated using the Hill equation.
(Tetrazolium dyes change colour on reduction, which living cells bring about.)

Series [2] concerns human pancreatic carcinoma cell line Panc-1. In words: MTT cell viability assay, Panc-1. It counts as cell-based. As to conditions: 72 h, serial dilutions 50-1.56 µM, n = 3, read-out: EC50 against Panc-1. The procedure:
as §1, §2, §3

The test system of series [3] is Human foreskin fibroblasts (HF) CRL-4001. In words: MTT cell viability assay, fibroblasts. The settings on record: 72 h. It counts as cell-based. The procedure:
as §1, §2, §3

Series [4] deals with human triple-negative breast cancer MDA-MB-231. In words: MTT cell viability assay, MDA-MB-231. It counts as cell-based. Here is the method: as §1, §2, §3
Series [5] concerns IGR39, MDA-MB-231 and Panc-1 cell migration. In words: 'Wound healing' cell migration assay, stated for all tested cell lines. It is filed as cell-based, human. The settings on record: 10 µM, compared to the control. Here is the method: (§4) Briefly, melanoma IGR39, human triple-negative breast cancer MDA-MB-231, and pancreatic carcinoma Panc-1 cells were seeded in 24-well plates at a density of 6 × 10^4 cells/well and incubated for 48 h in previously described cell culture medium at 37°C in a humidified atmosphere containing 5% CO2. Then the scratch was made using a 100 µL pipette tip. Cells were washed once with PBS, and the fresh medium containing 10 µM of compounds 4, 7, 8, 10, 14, 17, and 18 was added. Medium containing 0.1% DMSO was used as a negative control. Cells were incubated at 37 °C in a humidified atmosphere containing 5% CO2.
(§5) The ‘Wounds’ were captured at the intervals of 0 h, 24 h, 48 h and 72 h (only for the Panc-1 cell line) from scratch under the phase contrast microscope at a 4× magnification. The wound area was analysed using the ImageJ program (National Institute of Health, Bethesda, MD, USA).

Series [6] concerns MDA-MB-231 cell migration. In words: 'Wound healing' cell migration assay, MDA-MB-231. As to conditions: 10 µM, both after 24 h and 48 h of incubation. It is filed as cell-based, human. Here is the method:
as §4, §5

Series [7] relates to IGR39, MDA-MB-231 and Panc-1 cell lines. In words: MTT cell viability assay, result stated for all tested cancer cell lines together. It counts as cell-based, human. As to conditions: 72 h. The procedure: as §1, §2, §3
The test system of the next series is melanoma IGR39 spheroids. In words: 3D cell cultures (spheroids), IGR39. It is filed as cell-based, human. As to conditions: 10 µM, 8 days of incubation. The procedure:
(§6) Cancer cell spheroids were formed using the magnetic 3D Bioprinting method, as described elsewhere. Briefly, melanoma IGR39, triple-negative breast cancer MDA-MB-231 cells, pancreatic cancer Panc-1 cells, and human fibroblasts at 70% confluency in a 6-well plate were incubated with Nanoshuttle (n3D Biosciences, Inc., Houston, TX, USA) for 8 h at 37°C in a humidified atmosphere containing 5% CO2. Then cells were trypsinized, centrifuged, and seeded into an ultra-low attachment 96-well plate in a volume of 100 µL (1.5 × 10^3 cancer cells and 1.5 × 10^3 human fibroblasts/well). The plate was placed on a magnetic drive and incubated for 2 days at 37°C in a humidified atmosphere containing 5% CO2. Then the fresh medium containing 10 µM of the tested compound was added to the wells. Spheroids were captured every two days using the Olympus IX73 inverted microscope (OLYMPUS CORPORATION, Tokyo, Japan). Quantitative analysis of compound anticancer activity in spheroids was performed using ImageJ, version 1.53o (National Institutes of Health, USA) and Microsoft Office Excel 2016 software (Microsoft Corporation, Redmond, WA, USA).
(§7) On the last day of incubation, 10 µL of WST-1 reagent (Sigma-Aldrich Co, St. Louis, MO, USA) was added to each well with spheroids. After 10 h of incubation, 50 µL of liquid from each well were transferred to the new 96-well plate and the absorbance was measured at 460 and 530 nm using a multi-detection microplate reader. Spheroid cell viability was calculated using a formula provided in Section 3.2.2.

Series [8] has as its system IGR39, MDA-MB-231 and Panc-1 tumour spheroids. In words: 3D cell cultures (spheroids), stated for all three spheroid types. It is filed as cell-based, human. The settings on record: 10 µM, 8 days of incubation. Here is the method:
as §6, §7

SMILES strings stand for the structures.

By melting point is commonly meant the temperature of the solid-liquid transition. In turn, `CCOC(=O)CSC1NN=C(CCNc2ccccc2)N1c1ccccc1` (centres unmarked) [Compound 2, Ethyl 2-((4-phenyl-3-(2-(phenylamino)ethyl)-4,5-dihydro-1H-1,2,4-triazol-5-yl)thio)acetate] gave a melting point of 121 to 122 °C.
The compound `NNC(=O)CSc1nnc(CCNc2ccccc2)n1-c1ccccc1` [Compound 3, 2-((4-Phenyl-5-(2-(phenylamino)ethyl)-4H-1,2,4-triazol-3-yl)thio)acetohydrazide] displayed a melting point of 112 to 113 °C.
`COc1ccc2c(c1)C(=NNC(=O)CSc1nnc(CCNc3ccccc3)n1-c1ccccc1)C(=O)N2` [Compound 5, N′-(5-methoxy-2-oxoindolin-3-ylidene)-2-((4-phenyl-5-(2-(phenylamino)ethyl)-4H-1,2,4-triazol-3-yl)thio)acetohydrazide] returned a melting point of 238 to 239 °C.
Take `O=C(CSc1nnc(CCNc2ccccc2)n1-c1ccccc1)NN=C1C(=O)Nc2ccc([N+](=O)[O-])cc21` [Compound 6, N′-(5-nitro-2-oxoindolin-3-ylidene)-2-((4-phenyl-5-(2-(phenylamino)ethyl)-4H-1,2,4-triazol-3-yl)thio)acetohydrazide]: the melting point was in the range of 274 to 275 °C.
In the case of `O=C(CSc1nnc(CCNc2ccccc2)n1-c1ccccc1)NN=C1C(=O)Nc2ccc(F)cc21` [Compound 7, N′-(5-fluoro-2-oxoindolin-3-ylidene)-2-((4-phenyl-5-(2-(phenylamino)ethyl)-4H-1,2,4-triazol-3-yl)thio)acetohydrazide], the melting point fell in the range of 266 to 267 °C. In addition, the “activity against the IGR39 cell line (screening)” value in series [1] (50 µM, 72 h) is recorded as “most active”.
By EC50 is commonly meant the concentration needed to bring the measured effect to its halfway point. Compound `O=C(CSc1nnc(CCNc2ccccc2)n1-c1ccccc1)NN=C1C(=O)Nc2ccc(OC(F)(F)F)cc21` [Compound 8, N′-(2-oxo-5-(trifluoromethoxy)indolin-3-ylidene)-2-((4-phenyl-5-(2-(phenylamino)ethyl)-4H-1,2,4-triazol-3-yl)thio)acetohydrazide] gave a melting point of 258 to 259 °C. Moreover, in [2], the EC50 was 38.5 ± 1.6 µM. The “activity against the IGR39 cell line (screening)” value in series [1] (50 µM, 72 h) is given as “most active”. For the same compound, the cytotoxicity against fibroblasts result in series [3] (compared with the other selected compounds) is on record as “lower cytotoxicity against fibroblasts”.
For `Cc1ccc(C=NNC(=O)CSc2nnc(CCNc3ccccc3)n2-c2ccccc2)cc1` [Compound 9, N′-(4-methylbenzylidene)-2-((4-phenyl-5-(2-(phenylamino)ethyl)-4H-1,2,4-triazol-3-yl)thio)acetohydrazide], the melting point was 189 to 190 °C.
`CN(C)c1ccc(C=NNC(=O)CSc2nnc(CCNc3ccccc3)n2-c2ccccc2)cc1` [Compound 10, N′-(4-(dimethylamino)benzylidene)-2-((4-phenyl-5-(2-(phenylamino)ethyl)-4H-1,2,4-triazol-3-yl)thio)acetohydrazide] registered a melting point of 169 to 170 °C. In addition, the EC50 in series [2] came to 26.2 ± 1 µM. Besides, the EC50 in [4] (Homo sapiens, MDA-MB-231, 72 h, serial dilutions 50-1.56 µM, n = 3, read-out: EC50 against MDA-MB-231) was determined as 9.7 ± 1.6 µM. Further, in series [5], the “effect on cell migration” value is given as “inhibited all cancer cell migration”. The “selectivity against the melanoma IGR39 cell line (screening)” value in series [1] (50 µM, 72 h) is recorded as “moderate selectivity”. The EC50 in [1] (Homo sapiens, IGR-39, 72 h, serial dilutions 50-1.56 µM, n = 3, read-out: EC50 against IGR39) worked out at 22.3 ± 2.5 µM. For the same compound, the MDA-MB-231 cell migration entry in [6] is listed as “migrated slower”. The EC50 in [3] (Homo sapiens, Fibroblast, serial dilutions 50-1.56 µM, n = 3, read-out: EC50 against fibroblasts) worked out at 61.4 ± 2.8 µM.
As for `O=C(CSc1nnc(CCNc2ccccc2)n1-c1ccccc1)NN=Cc1ccncc1` [Compound 11, 2-((4-Phenyl-5-(2-(phenylamino)ethyl)-4H-1,2,4-triazol-3-yl)thio)-N′-(pyridin-4-ylmethylene)acetohydrazide], the melting point was in the range of 209 to 210 °C.
The compound `O=C(CSc1nnc(CCNc2ccccc2)n1-c1ccccc1)NN=Cc1cccnc1` [Compound 12, 2-((4-Phenyl-5-(2-(phenylamino)ethyl)-4H-1,2,4-triazol-3-yl)thio)-N′-(pyridin-3-ylmethylene)acetohydrazide] had a melting point of 92 to 93 °C.
Consider `O=C(CSc1nnc(CCNc2ccccc2)n1-c1ccccc1)NN=Cc1ccc(C(=O)O)cc1` [Compound 13, 4-((2-(2-((4-Phenyl-5-(2-(phenylamino)ethyl)-4H-1,2,4-triazol-3-yl)thio)acetyl)hydrazono)methyl)benzoic acid], for which the melting point was 233 to 234 °C.
`O=C(CSc1nnc(CCNc2ccccc2)n1-c1ccccc1)NN=Cc1c[nH]nc1-c1ccccc1` [Compound 15, N′-((3-phenyl-1H-pyrazol-4-yl)methylene)-2-((4-phenyl-5-(2-(phenylamino)ethyl)-4H-1,2,4-triazol-3-yl)thio)acetohydrazide] showed a melting point of 119 to 120 °C.
`Cn1ccc(C=NNC(=O)CSc2nnc(CCNc3ccccc3)n2-c2ccccc2)n1` [Compound 16, N′-((1-methyl-1H-pyrazol-3-yl)methylene)-2-((4-phenyl-5-(2-(phenylamino)ethyl)-4H-1,2,4-triazol-3-yl)thio)acetohydrazide] gave a melting point of 62 to 63 °C.
`O=C(CSc1nnc(CCNc2ccccc2)n1-c1ccccc1)NN=Cc1cc([N+](=O)[O-])ccc1O` [Compound 18, N′-(2-hydroxy-5-nitrobenzylidene)-2-((4-phenyl-5-(2-(phenylamino)ethyl)-4H-1,2,4-triazol-3-yl)thio)acetohydrazide] returned a melting point of 219 to 220 °C. In addition, in [7] (50 µM), the “activity against all tested cancer cell lines (screening)” value is “most active”. In addition, in series [7] (Homo sapiens, range over cancer cell lines, read-out: EC50 values against the tested cancer cell lines (range)), the EC50 was 2 to 17 µM. In the series with melanoma IGR39 spheroids, the “melanoma IGR39 spheroid growth” value is listed as “mostly inhibited”. The “activity in 3D cell cultures (spheroids)” value in series [8] is “most active”.
`CSc1ccc(C=NNC(=O)CSc2nnc(CCNc3ccccc3)n2-c2ccccc2)cc1` [Compound 19, N′-(4-(methylthio)benzylidene)-2-((4-phenyl-5-(2-(phenylamino)ethyl)-4H-1,2,4-triazol-3-yl)thio)acetohydrazide] gave a melting point of 196 to 197 °C. In addition, in [4] (50 µM, 72 h), the “activity towards the triple-negative breast cancer cell line (screening)” value is reported as “relatively higher activity”. Besides, in series [1] (50 µM, 72 h), the “activity against the IGR39 cell line (screening)” value is “least active”.
